Where two headings read alike, the source gives them in different places.
How the values were obtained:
[1] = test system: human malignant glioblastoma cell U87MG xenograft; assay: Test V: human malignant glioblastoma U87MG xenograft in nude mice; type: in vivo
Procedure: U87-MG cells were expanded by in vitro culture, cells at log phase were harvested and resuspended in EMEM, adjusted to a cell density of 2.8×10^7/mL, then implanted subcutaneously in the right axilla of nude mice.
During the trial, tumor diameters and animal weights were measured twice a week. Tumor Volume (TV) was calculated by the following equation: TV=1/2×a×b^2, wherein a, b represent length and width, respectively. Based on the measurement, Relative Tumor Volume (RTV) was calculated by the following equation: RTV=Vt/V0, wherein V0 is the tumor volume measured when divided for administration (i.e., d0), Vt is the tumor volume measured at each timepoint.

[2] = target: T1, c-Met kinase domain recombinant protein (Homo sapiens, UniProt P08581); assay: biochemical; settings: read-out: Inhibition rate at 10 μM (%)
T1 construct: 50 μL diluted solution of c-Met kinase domain recombinant protein in reaction buffer was added to initiate the reaction
T1 sequence (P08581 1078-1345 limits assumed): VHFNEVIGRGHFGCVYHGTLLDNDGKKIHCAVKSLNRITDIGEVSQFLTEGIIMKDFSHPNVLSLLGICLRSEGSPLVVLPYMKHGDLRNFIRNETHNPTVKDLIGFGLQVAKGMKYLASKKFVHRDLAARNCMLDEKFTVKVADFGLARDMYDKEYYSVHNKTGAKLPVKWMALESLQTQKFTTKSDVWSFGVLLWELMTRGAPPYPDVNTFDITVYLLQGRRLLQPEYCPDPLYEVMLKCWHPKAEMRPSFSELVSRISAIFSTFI
Outline: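 Recombinant c-Met kinase domain phosphorylated immobilised Poly(Glu,Tyr)4:1 for 1 h at 37 °C in 50 mM HEPES pH 7.4, 50 mM MgCl2, 0.5 mM MnCl2, 0.2 mM Na3VO4, 1 mM DTT with ATP. Product measured by anti-phosphotyrosine PY99 ELISA (HRP, 490 nm), giving percent inhibition; ATP-free wells served as control.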

BaF3/TPR-Met cell = assay: Test III: growth inhibition of engineered BaF3/TPR-Met cells (MTT); type: cell-based; settings: Mus musculus, BaF3, 72 h
Procedure: Assays on the growth inhibition of the compounds against engineered BaF3/TPR-Met cell (engineered cell line having TPR-Met fusion protein stably expressed in cytoplasm, persistently activated, Met dependent sensitive cell line; BaF3 cell was purchased from DSMZ, German) were detected using microculture tetrozolium (MTT) staining. A certain amount of BaF3/TPR-Met cells at log phase were inoculated into 96-well culture plate at 90 µL per well, incubated overnight and then 10 μL compound at various concentrations or vehicle control (normal saline) was added, each concentration was tested in triplicate. After incubation with compound for 72 hours, the incubation was terminated, MTT solution (5 mg/mL) was added at 20 μL per well, incubated at 37° C. for 4 hours, then 100 μL triplet solution (10% SDS−5% isobutanol−0.01M HCl) was added, incubated overnight at 37° C., OD value was measured at 570 nm. […] Experiments were conducted in duplicates.

[3] = target: T1, c-Met kinase domain recombinant protein; assay: biochemical
Outline: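 IC50 came from a four-parameter fit of inhibition rates measured by anti-phosphotyrosine (PY99/HRP) ELISA at 490 nm. The reaction ran 1 hour at 37° C with 5 μM ATP, c-Met kinase domain protein and Poly(Glu,Tyr)4:1-coated wells, in HEPES pH 7.4 buffer containing MgCl2, MnCl2, Na3VO4 and DTT.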

[4] = 50 mg/kg po qd/14, end of administration

In the case of Cn1cc(-c2cnc3cnn(S(=O)(=O)c4cnc5ccccn45)c3c2)cn1 [Compound 19, 1-(imidazo[1,2-a]pyridine-3-sulfonyl)-6-[(1-methyl)-4-pyrazolyl]-1-H-pyrazolo[4,3-b]pyridine], the “state and survival of mice during the administration period” value ([1]; 50 mg/kg daily for 14 days) is reported as “in good state and were survived”, the “antitumor activity (in words)” value ([1]; 50 mg/kg daily, d14) is reported as “favorable antitumor activity” and the “RTV (mean ± SE)” value [1, 4] is reported as 77.0 ± 5.2. For the same molecule, the “TV (mm^3, mean ± SE) d21” value [1, 4] was 140 ± 20 mm^3, the “Weight (g) d21” value [1, 4] was 24.5 g and the “GI (%)” value ([1]; 50 mg/kg po qd/14, end of the trial) was 102.41%. For the same molecule, the “T/C (%)” value ([1]; 50 mg/kg po qd/14, end of the trial (d14)) was 7.29%, the inhibition at 10 µM [2] was 59.3% and the inhibition at 0.2 µM (BaF3/TPR-Met cell; read-out: Cell proliferation inhibition rate at 200 nM (%)) was 91.8%. It also gave an inhibition at 1 µM (BaF3/TPR-Met cell; read-out: Cell proliferation inhibition rate at 1 μM (%)) of 95.6%, an IC50 [3] of 7.8 ± 0.8 nM and an inhibition at 0.1 µM ([3]; read-out: Average inhibition rate at 0.1 μM (%)) of 59.2%. The inhibition at 1 µM ([3]; read-out: Average inhibition rate at 1 μM (%)) was 53.5% and the inhibition at 10 µM ([3]; read-out: Average inhibition rate at 10 μM (%)) was 59.3%.

— patent publication US9988381B2, “Five-member-heterocycle fused pyridine compounds, method of producing the same, and use thereof” (SHANGHAI INSTITUTE OF MATERIA MEDICA, CHINESE ACADEMY OF …, priority 2013, dated 2018)
